Measurements published in patent publication US20210046071A1, “TETRACYCLIC COMPOUNDS AND THEIR SALTS, COMPOSITIONS, AND METHODS FOR THEIR USE” (Senhwa Biosciences, Inc., priority 2019, published 2021).

Columns and labels:
EOL-1 = assay: Alamar Blue cell viability assay, EOL-1; assay type: cell-based; details: Homo sapiens, EOL1; EOL-1, Leukemia
Method: (§1) The effect of Compound I on cell viability was assessed by Alamar Blue assay of metabolic activity in various cancer cell lines.

MOLT-3 = assay: Alamar Blue cell viability assay, MOLT-3; assay type: cell-based; details: Homo sapiens; MOLT-3, Leukemia
Method: as §1

MV 4; 11 = assay: Alamar Blue cell viability assay, MV 4; 11; assay type: cell-based; details: Homo sapiens, MV4-11, 11, Leukemia
Method: as §1

SEM cells = assay: Alamar Blue cell viability assay, SEM; assay type: cell-based; details: Leukemia
Method: as §1

A7 = assay: Alamar Blue cell viability assay, A7; assay type: cell-based; details: A7, Melanoma
Method: as §1

NCI-H460 = assay: Alamar Blue cell viability assay, NCI-H460; assay type: cell-based; details: Homo sapiens; NCI-H460, Lung
Method: as §1

THP-1 = assay: Alamar Blue cell viability assay, THP-1; assay type: cell-based; details: Homo sapiens; THP-1, Leukemia
Method: as §1

Ramos = assay: Alamar Blue cell viability assay, Ramos; assay type: cell-based; details: Homo sapiens, Lymphoma
Method: as §1

RPMI-8226 = assay: Alamar Blue cell viability assay, RPMI-8226; assay type: cell-based; details: Homo sapiens; RPMI-8226, Myeloma
Method: as §1

NCI-H520 = assay: Alamar Blue cell viability assay, NCI-H520; assay type: cell-based; details: Homo sapiens; NCI-H520, Lung
Method: as §1

SK-OV-3 = assay: Alamar Blue cell viability assay, SK-OV-3; assay type: cell-based; details: Homo sapiens; SK-OV-3, Ovarian
Method: as §1

BT-474 = assay: Alamar Blue cell viability assay, BT-474; assay type: cell-based; details: Homo sapiens; BT-474, Breast
Method: as §1

COLO-205 = assay: Alamar Blue cell viability assay, COLO-205; assay type: cell-based; details: Homo sapiens; COLO-205, Colon
Method: as §1

Hs 605.T = assay: Alamar Blue cell viability assay, Hs 605.T; assay type: cell-based; details: Breast
Method: as §1

MDA-MB-453 = assay: Alamar Blue cell viability assay, MDA-MB-453; assay type: cell-based; details: Homo sapiens; MDA-MB-453, Breast
Method: as §1

NK92mi = assay: Alamar Blue cell viability assay, NK92mi; assay type: cell-based; details: Lymphoma
Method: as §1

PC-3 = assay: Alamar Blue cell viability assay, PC-3; assay type: cell-based; details: Homo sapiens; PC-3, Prostate
Method: as §1

MDA-MB-361 = assay: Alamar Blue cell viability assay, MDA-MB-361; assay type: cell-based; details: Homo sapiens; MDA-MB-361, Breast
Method: as §1

Saos-2 = assay: Alamar Blue cell viability assay, Saos-2; assay type: cell-based; details: Homo sapiens; Saos-2, Osteosarcoma
Method: as §1

PANC-1 = assay: Alamar Blue cell viability assay, PANC-1; assay type: cell-based; details: Homo sapiens; PANC-1, Pancreatic
Method: as §1

LNCaP = assay: Alamar Blue cell viability assay, LNCaP; assay type: cell-based; details: Homo sapiens, Prostate
Method: as §1

CCD-1058Sk = assay: Alamar Blue cell viability assay, CCD-1058Sk; assay type: cell-based; details: Normal
Method: as §1

CCD-1094Sk = assay: Alamar Blue cell viability assay, CCD-1094Sk; assay type: cell-based; details: Normal
Method: as §1

CCD-1068Sk = assay: Alamar Blue cell viability assay, CCD-1068Sk; assay type: cell-based; details: Normal
Method: as §1

BJ-hTERT = assay: Alamar Blue cell viability assay, BJ-hTERT; assay type: cell-based; details: Normal
Method: as §1

CCD-1096Sk = assay: Alamar Blue cell viability assay, CCD-1096Sk; assay type: cell-based; details: Normal
Method: as §1

[1] = Dose escalation study in patients, toxicity and adverse events; assay type: in vivo, human
Method: (§2) Pharmacokinetic studies and dose escalation studies were conducted in adult patients with metastatic, recurrent, locally, advanced, or unresectable solid malignancy (patients with histologically and/or cytologically confirmed solid malignancy), who received prior anti-cancer treatment(s) until disease progression, at 10 different dose levels of Compound I. Groups 1-7 were administered intravenously on days 1 and 8 of a 4-week cycle at 50, 100, 150, 200, 250, 325, and 475 mg/m^2 (lyophilized formulation), respectively. Groups 8-10 were administered intravenously on days 1,8, and 15 of a 4-week cycle at 325, 475, and 650 mg/m^2 (lyophilized formulation), respectively. Each patient received each dose over 1 hour by IV infusion on days described above.

solid malignancy = assay: Dose escalation study in patients, best response / tumor shrinkage; assay type: in vivo, human
Method: as §2
The duration on therapy at each dose level for evaluable patients is depicted in FIG. 8.
In the study described in Example 3, 18 patients were diagnosed with metastatic breast cancer. […] This study was conducted to evaluate predictive biomarkers of response to Compound I and to explore the relationship between germline HRD aberrations and outcomes of Compound I treatments.
In the study described in Example 3, 12 patients harbored BRCA1 or BRCA2 mutation. From the same group of 12 patients harboring BRCA1 or BRCA2 mutation, 8 patients had breast cancer (FIG. 5). Of the 8 patients, 6 patient harbored BRCA2 mutation and had breast cancer (FIG. 6). In FIGS. 4-6, each bar represents an individual in a treatment Group as indicated by the Group number corresponding to the treatment Groups in Example 3.

[2] = test system: BRCA2 knockout tumor cells; assay: BRCA2 knockout tumor xenograft model; assay type: in vivo; details: compared with isogenic wild type control cells
[3] = test system: multiple cancer cell lines; assay: Alamar Blue cell viability assay, multiple cancer cell lines; assay type: cell-based; details: Table 1
Method: as §1

normal cells = assay: Alamar Blue cell viability assay, normal cells; assay type: cell-based; details: compared with cancer cell lines
Method: as §1

[4] = of the 40 patients treated, 34 discontinued

EC50 (MOLT-3): 6 nM | EC50 (NCI-H460): 38 nM | EC50 (THP-1): 47 nM | EC50 (Ramos): 66 nM | EC50 (RPMI-8226): 68 nM | EC50 (NCI-H520): 70 nM | EC50 (SK-OV-3): 78 nM | EC50 (BT-474): 86 nM | EC50 (COLO-205): 96 nM | EC50 (MDA-MB-453): 140 nM | EC50 (PC-3): 1100 nM | EC50 (MDA-MB-361): 2100 nM | EC50 (PANC-1): 5000 nM | EC50 (LNCaP): 5500 nM
Compound: Cc1cnc(CNC(=O)c2c(=O)c3ccc(N4CCCN(C)CC4)nc3n3c2sc2ccccc23)cn1 [Compound I, 2-(4-Methyl-[1,4]diazepan-1-yl)-5-oxo-5H-7-thia-1,11b-diaza-benzo[c]fluorene-6-carboxylic acid (5-methyl-pyrazin-2-ylmethyl)-amide]
EC50 (EOL-1): 3 nM | EC50 (MV 4; 11): 12 nM | EC50 (SEM cells): 18 nM | EC50 (A7): 23 nM | EC50 (Hs 605.T): 116 nM | EC50 (NK92mi): 165 nM | EC50 (Saos-2): 5000 nM | EC50 (CCD-1058Sk): 4710 nM | EC50 (CCD-1094Sk): 4810 nM | EC50 (CCD-1068Sk): 5070 nM | EC50 (BJ-hTERT): 5170 nM | EC50 (CCD-1096Sk): 5260 nM | Serious adverse events (SAEs) considered related to Compound I ([1]; Groups 1-10): Three | Treatment-related AE: hand-foot syndrome ([1]; Groups 1-10): 23% | Treatment-related AE: headache ([1]; Groups 1-10): 10% | Treatment-related AE: mucositis ([1]; Groups 1-10): 15% | Treatment-related AE: nausea ([1]; Groups 1-10): 44% | Treatment-related AE: photosensitivity of the eyes ([1]; Groups 1-10): 21% | Treatment-related AE: photosensitivity of the skin ([1]; Groups 1-10): 59% | Treatment-related AE: rash ([1]; Groups 1-10): 10% | Dose level toxicity (DLT) ([1]; Groups 1-10, 50 to 650 mg/m^2 IV): No dose level toxicity (DLT) were observed | Treatment-related non-DLT grade 3 photosensitivity events ([1]; in Groups 1, 5, and 8-10, reversible): 5 | Response of a patient who harbored a PALB2 mutation (solid malignancy; Group 10, 650 mg/m^2, CT scans, 6-month follow-up): partial response (PR) | Patients discontinued due to objective progressive disease (solid malignancy; [4]): 29 | Patients discontinued due to symptomatic progression of disease (solid malignancy; [4]): 4 | Patients with stable disease as best response for >4 cycles (solid malignancy; of the 40 patients treated, 2 with breast cancer, 4 germline BRCA2, 2 somatic BRCA1/2): 6 patients | Patients with confirmed partial response as best response (solid malignancy; of the 40 patients treated, 3 with breast cancer, 2 germline BRCA2, 1 germline BRCA2 VUS, germline PALB2): 4 patients | Outcome in 8 patients who had received prior PARP inhibitor therapy (solid malignancy; only 2 of them had BRCA2 mutations): all had early progression after ≤2 cycles | Dose at which patients with BRCA2 mutation responded, tumor shrinkage observed (solid malignancy; patients with BRCA2 mutation): greater than or equal to 150 mg/m^2 | Activity in BRCA2 knockout tumor cells in a xenograft model [2]: wide therapeutic index of activity | Antiproliferative activity [3]: broad spectrum antiproliferative activity | Activity in normal cells (normal cells): significantly less active
